According to patent publication US6300501A, “Histidine-(N-benzyl glycinamide) inhibitors of protein farnesyl transferase” (Warner-Lambert Company, priority 1998, dated 2001):
pIC50: −log10 of the molar value. Read-outs that look alike come from different tables or passages of the source.

Key:
[1] = system: ras farnesylation in ras-transformed cells; experiment: Gel shift assay; assay type: cell-based; details: ras-transformed cells, 18-hour incubation; read-out: Gel Shift (μM) MED (minimal effective dose to observe inhibition of ras farnesylation)
How it was run: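 Ras-transformed cells (2×10^6 per condition) treated with farnesylation inhibitor at varying concentrations for 18 h. Ras immunoprecipitated from lysates with Y13-259, resolved on 14% SDS gels and detected by pan-ras Western blot with ECL, farnesylated and unfarnesylated ras separating by mobility shift.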

[2] = biological target: T1, SF9 affinity purified rat farnesyl protein transferase (Rattus norvegicus, UniProt Q02293+Q04631); experiment: PFT inhibitory activity (radiolabeled farnesyl pyrophosphate, streptavidin bead assay); assay type: biochemical
T1 construct: made in house; host or cells: Sf9 insect cells (baculovirus system inferred from b7)
How it was run: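 HEPES pH 7.4 with 5 mM potassium phosphate (also run without), 20 μM ZnCl2, 5 mM DTT, 5 mM MgCl2, 0.1% PEG 8000; [3H]farnesyl pyrophosphate 134 nM and biotinyl-Ahe-TKCVIM peptide 0.2 μM final. Incubated 30 min at 30° C, stopped with acidic magnesium acetate/streptavidin bead buffer; bead-bound radioactivity counted.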

[3] = system: H61 tumor cell xenografts; experiment: In vivo assay: H61 tumor xenografts in nude mice
Method: The compound described in Example 15 was tested for its ability to inhibit the growth of H61 tumor cell xenografts in nude mice. H61 Cells are fibroblasts transformed to a malignant state by transfection with an activated mutant form of human h-ras. Ten to 30 mg fragments of H61 tumors were inoculated SC (subcutaneously) in the axial region into female nude mice with a trocar needle on day zero of the experiment. The mice were randomized to treatment groups and were then given SC injections of the compound described in Example 15 suspended in 10% cremofor/10% ethanol/80% water twice each day on Days 3-17 of the experiment. At Day 12 of the experiment, the median control tumor burden was 1958 mg as assessed by caliper measurements.

[4] = system: H61 cells: NIH transformed 3T3 H-ras cells; experiment: Clonogenic assay (6 well plates, soft agar); assay type: cell-based; details: colonies counted after Day 13, read-out: Clonogenic Assay IC50
How it was run: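 Soft-agar colony formation: cells seeded in 0.3% agar top layer with 20% calf serum over a 0.6% agar base, drug or DMSO added at 4 µL per mL agar/medium. Incubated at 37 °C, 5% CO2; INT (1 mg/mL) added on day 13 to stain colonies.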

[5] = system: EJ-1 human bladder carcinoma, HT1080 human fibrosarcoma and human colon carcinoma xenografts; details: 100 mg/kg; cited from earlier work
[6] = system: human lung carcinoma with K-ras mutation and p53 deletion; details: nude mice; cited from earlier work
[7] = system: mammary and salivary carcinomas; details: daily administration; cited from earlier work
[8] = HEPES buffer pH 7.4, without 5 mM potassium phosphate, read-out: IC50 (μM) Hepes
[9] = HEPES buffer pH 7.4 containing 5 mM potassium phosphate, read-out: IC50 (μM) 5 mM K3 PO4 -2

T1 sequence (Q02293 whole entry, one chain of several): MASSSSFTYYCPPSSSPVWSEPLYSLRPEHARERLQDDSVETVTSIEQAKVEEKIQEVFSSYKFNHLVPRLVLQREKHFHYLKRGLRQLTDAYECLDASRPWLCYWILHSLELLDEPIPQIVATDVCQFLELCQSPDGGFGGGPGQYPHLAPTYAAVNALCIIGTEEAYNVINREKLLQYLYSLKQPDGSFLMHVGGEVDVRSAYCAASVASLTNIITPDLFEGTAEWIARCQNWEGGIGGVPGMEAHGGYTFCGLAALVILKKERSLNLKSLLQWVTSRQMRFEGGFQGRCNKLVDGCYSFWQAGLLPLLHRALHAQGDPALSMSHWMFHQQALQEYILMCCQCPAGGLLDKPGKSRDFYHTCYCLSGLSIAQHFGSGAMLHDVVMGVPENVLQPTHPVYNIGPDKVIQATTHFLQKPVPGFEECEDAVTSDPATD

Row | SMILES | minimal effective concentration [1] | IC50 [2, 8] | IC50 [2, 9] | pIC50 ([4]; 312 h) | other results
1 | CC(C)(CNC(=O)CN(Cc1ccc(OCc2ccccc2)cc1)C(=O)[C@H](Cc1cnc[nH]1)NC(=O)OCc1ccccc1)c1ccccc1 [Example 15, (S)-[1-{(4-Benzyloxy-benzyl)-[(2-methyl-2-phenyl-propylcarbamoyl)-methyl]-carbamoyl}-2-(3H-imidazole-4-yl)-ethyl]-carbamic Acid Benzyl Ester] | 0.01 to 0.05 µM | 0.12 µM | 0.007 µM | 6.72 | median tumor burden ([3]; 125 mg/kg/injection SC twice each day, Days 3-17, Day 12, median control tumor burden 1958 mg): 106 mg; inhibition of tumor growth ([3]; 125 mg/kg/injection SC twice each day, Day 12): 95%; tumor growth delay ([3]; 125 and 78 mg/kg/injection dose levels): tumor growth delay also consistent with significant inhibition of tumor growth; tolerability / host toxicity ([3]; 125 and 78 mg/kg/injection dose levels, nude mice): well-tolerated with minimal or no host toxicity
2 | CC(C)(CNC(=O)CN(Cc1ccc(-c2ccccc2)cc1)C(=O)[C@H](Cc1c[nH]cn1)NC(=O)OCc1ccccc1)c1ccccc1 [Example 52, (S)-[1-{Biphenyl-4-ylmethyl-[(2-methyl-2-phenyl-propylcarbamoyl)-methyl]-carbamoyl}-2-(1H-imidazole-4-yl)-ethyl]-carbamic Acid Benzyl Ester] | 0.05 µM | 0.48 µM | 0.004 µM | 6.28 | –
3 | O=C(CN(Cc1ccc(OCc2ccccc2)cc1)C(=O)[C@H](Cc1c[nH]cn1)NC(=O)OCc1ccccc1)NCCc1ccccc1Cl [Example 53] | 0.2 µM | 10.6 µM | 0.12 µM | – | pIC50 [4]: 4.91
4 | COC(=O)[C@H](CCSC)NC(=O)[C@H](/C=C\[C@@H](/C=C/[C@@H](N)CS)C(C)C)Cc1ccccc1 [Example B1086] | – | – | – | – | tumor growth [5]: inhibit tumor growth
5 | CSCC[C@H](NC(=O)c1ccc(NC[C@@H](N)CS)cc1-c1ccccc1)C(=O)O [FTI276] | – | – | – | – | tumor growth [6]: selectively block tumor growth
6 | CC[C@H](C)[C@@H](CO[C@@H](Cc1ccccc1)C(=O)N[C@@H](CCS(C)(=O)=O)C(=O)OC(C)C)NC[C@@H](N)CS [L-744,832] | – | – | – | – | tumor regression [7]: caused tumor regression
